Measured values: PubChem BioAssay AID2060502 (Molecular Pharmacology Branch, DTP, NCI, 2025)

System: 885724-159-R-J1-PDC complex spheroid viability
Assay: Anticancer human tumor 885724-159-R-J1-PDC patient-derived pancreatic adenocarcinoma cell line growth inhibition [GQUAD]
Conditions: for IC50: curve of first compound; for viability, T/C: stronger effect = lower value
Outline: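 Multi-cell-type spheroids of tumor cells with HUVEC and mesenchymal stem cells, treated with drug combinations. Concentrations descend in half-log steps from near clinical Cmax, or from 10 microM where Cmax is unknown; viability read-out.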

[1] = second compound 0.0316 µM, first compound 0.000999 µM
[2] = second compound 0.0316 µM, first compound 0.00316 µM
[3] = second compound 0.0316 µM, first compound 0.00999 µM
[4] = second compound 0.0316 µM, first compound 0.0316 µM
[5] = second compound 0.0316 µM, first compound 0.0999 µM
[6] = second compound 0.0316 µM, first compound 0.316 µM
[7] = second compound 0.1 µM, first compound 0.000999 µM
[8] = second compound 0.1 µM, first compound 0.00316 µM
[9] = second compound 0.1 µM, first compound 0.00999 µM
[10] = second compound 0.1 µM, first compound 0.0316 µM
[11] = second compound 0.1 µM, first compound 0.0999 µM
[12] = second compound 0.1 µM, first compound 0.316 µM
[13] = second compound 0.316 µM, first compound 0.000999 µM
[14] = second compound 0.316 µM, first compound 0.00316 µM
[15] = second compound 0.316 µM, first compound 0.00999 µM
[16] = second compound 0.316 µM, first compound 0.0316 µM
[17] = second compound 0.316 µM, first compound 0.0999 µM
[18] = second compound 0.316 µM, first compound 0.316 µM
[19] = second compound 1 µM, first compound 0.000999 µM
[20] = second compound 1 µM, first compound 0.00316 µM
[21] = second compound 1 µM, first compound 0.00999 µM
[22] = second compound 1 µM, first compound 0.0316 µM
[23] = second compound 1 µM, first compound 0.0999 µM
[24] = second compound 1 µM, first compound 0.316 µM
[25] = second compound 3.16 µM, first compound 0.000999 µM
[26] = second compound 3.16 µM, first compound 0.00316 µM
[27] = second compound 3.16 µM, first compound 0.00999 µM
[28] = second compound 3.16 µM, first compound 0.0316 µM
[29] = second compound 3.16 µM, first compound 0.0999 µM
[30] = second compound 3.16 µM, first compound 0.316 µM
[31] = second compound 10 µM, first compound 0.000999 µM
[32] = second compound 10 µM, first compound 0.00316 µM
[33] = second compound 10 µM, first compound 0.00999 µM
[34] = second compound 10 µM, first compound 0.0316 µM
[35] = second compound 10 µM, first compound 0.0999 µM
[36] = second compound 10 µM, first compound 0.316 µM
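Further: spheroids exposed to agents for seven days before readout.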
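Wherever viability, T/C is given: percent of vehicle control viability where 100% = DMSO wells.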

## CCc1c2c(nc3ccc(O)cc13)-c1cc3c(c(=O)n1C2)COC(=O)[C@]3(O)CC + Cc1cnc(CNC(=O)c2c(=O)c3ccc(N4CCCN(C)CC4)nc3n3c2sc2ccccc23)cn1
Second compound 0.0316 µM
  IC50: 0.0817 µM
Second compound 0.1 µM
  IC50: 0.0418 µM
Second compound 0.316 µM
  IC50: 0.0483 µM
Second compound 1 µM
  IC50: 0.057 µM
Second compound 3.16 µM
  IC50: 0.033 µM
Second compound 10 µM
  IC50: 0.0326 µM
[1]
  viability, T/C: 101%
[2]
  viability, T/C: 97.1%
[3]
  viability, T/C: 75.1%
[4]
  viability, T/C: 66.2%
[5]
  viability, T/C: 54.1%
[6]
  viability, T/C: 9.27%
[7]
  viability, T/C: 114%
[8]
  viability, T/C: 90.5%
[9]
  viability, T/C: 68.8%
[10]
  viability, T/C: 60.4%
[11]
  viability, T/C: 45.2%
[12]
  viability, T/C: 7.81%
[13]
  viability, T/C: 93.2%
[14]
  viability, T/C: 82.7%
[15]
  viability, T/C: 72.2%
[16]
  viability, T/C: 54.4%
[17]
  viability, T/C: 42.4%
[18]
  viability, T/C: 4.89%
[19]
  viability, T/C: 77.2%
[20]
  viability, T/C: 78.6%
[21]
  viability, T/C: 63.8%
[22]
  viability, T/C: 61.3%
[23]
  viability, T/C: 41.7%
[24]
  viability, T/C: 0.87%
[25]
  viability, T/C: 73.9%
[26]
  viability, T/C: 72.1%
[27]
  viability, T/C: 57.8%
[28]
  viability, T/C: 48.3%
[29]
  viability, T/C: 36.7%
[30]
  viability, T/C: 0.45%
[31]
  viability, T/C: 66.5%
[32]
  viability, T/C: 69.6%
[33]
  viability, T/C: 53.6%
[34]
  viability, T/C: 54.8%
[35]
  viability, T/C: 30.7%
[36]
  viability, T/C: 0.45%

## O=C(NO)c1cnc(N2CCN(S(=O)(=O)c3ccc4ccccc4c3)CC2)nc1 + CN(C)c1ccc(Nc2c3ccc(NC(=O)CCN4CCCC4)cc3nc3cc(NC(=O)CCN4CCCC4)ccc23)cc1
Second compound 0.0316 µM
  IC50: 0.683 µM
Second compound 0.1 µM
  IC50: 0.702 µM
Second compound 0.316 µM
  IC50: 0.579 µM
Second compound 1 µM
  IC50: 0.5 µM
Second compound 3.16 µM
  IC50: 0.519 µM
Second compound 10 µM
  IC50: 0.218 µM
[4]
  viability, T/C: 91.8%
Second compound 0.0316 µM, first compound 0.1 µM
  viability, T/C: 117%
[6]
  viability, T/C: 78.7%
Second compound 0.0316 µM, first compound 1 µM
  viability, T/C: 35.9%
Second compound 0.0316 µM, first compound 3.16 µM
  viability, T/C: 0.8%
Second compound 0.0316 µM, first compound 10 µM
  viability, T/C: 0.93%
[10]
  viability, T/C: 106%
Second compound 0.1 µM, first compound 0.1 µM
  viability, T/C: 100%
[12]
  viability, T/C: 86.5%
Second compound 0.1 µM, first compound 1 µM
  viability, T/C: 34.5%
Second compound 0.1 µM, first compound 3.16 µM
  viability, T/C: 0.82%
Second compound 0.1 µM, first compound 10 µM
  viability, T/C: 0.44%
[16]
  viability, T/C: 83.7%
Second compound 0.316 µM, first compound 0.1 µM
  viability, T/C: 91.2%
[18]
  viability, T/C: 75.6%
Second compound 0.316 µM, first compound 1 µM
  viability, T/C: 26.5%
Second compound 0.316 µM, first compound 3.16 µM
  viability, T/C: 1.07%
Second compound 0.316 µM, first compound 10 µM
  viability, T/C: 1.4%
[22]
  viability, T/C: 80.4%
Second compound 1 µM, first compound 0.1 µM
  viability, T/C: 68.9%
[24]
  viability, T/C: 64.2%
Second compound 1 µM, first compound 1 µM
  viability, T/C: 29.9%
Second compound 1 µM, first compound 3.16 µM
  viability, T/C: 1.26%
Second compound 1 µM, first compound 10 µM
  viability, T/C: 0.73%
[28]
  viability, T/C: 71.7%
Second compound 3.16 µM, first compound 0.1 µM
  viability, T/C: 64.6%
[30]
  viability, T/C: 76.8%
Second compound 3.16 µM, first compound 1 µM
  viability, T/C: 22%
Second compound 3.16 µM, first compound 3.16 µM
  viability, T/C: 1.42%
Second compound 3.16 µM, first compound 10 µM
  viability, T/C: 0.69%
[34]
  viability, T/C: 61%
Second compound 10 µM, first compound 0.1 µM
  viability, T/C: 59%
[36]
  viability, T/C: 43.7%
Second compound 10 µM, first compound 1 µM
  viability, T/C: 26.7%
Second compound 10 µM, first compound 3.16 µM
  viability, T/C: 1.36%
Second compound 10 µM, first compound 10 µM
  viability, T/C: 2.05%

## Cc1[nH]c2ccccc2c1CCNCc1ccc(/C=C/C(=O)NO)cc1 + Cc1cnc(CNC(=O)c2c(=O)c3ccc(N4CCCN(C)CC4)nc3n3c2sc2ccccc23)cn1
Second compound 0.0316 µM
  IC50: 0.291 µM
Second compound 0.1 µM
  IC50: 0.241 µM
Second compound 0.316 µM
  IC50: 0.193 µM
Second compound 1 µM
  IC50: 0.137 µM
Second compound 3.16 µM
  IC50: 0.0935 µM
Second compound 10 µM
  IC50: 0.0238 µM
[1]
  viability, T/C: 111%
[2]
  viability, T/C: 103%
[3]
  viability, T/C: 89.7%
[4]
  viability, T/C: 95.4%
[5]
  viability, T/C: 97.5%
[6]
  viability, T/C: 46.4%
[7]
  viability, T/C: 100%
[8]
  viability, T/C: 114%
[9]
  viability, T/C: 117%
[10]
  viability, T/C: 98.8%
[11]
  viability, T/C: 67.2%
[12]
  viability, T/C: 44.7%
[13]
  viability, T/C: 107%
[14]
  viability, T/C: 103%
[15]
  viability, T/C: 102%
[16]
  viability, T/C: 83.1%
[17]
  viability, T/C: 72.8%
[18]
  viability, T/C: 34.5%
[19]
  viability, T/C: 90%
[20]
  viability, T/C: 78.6%
[21]
  viability, T/C: 75.8%
[22]
  viability, T/C: 71.5%
[23]
  viability, T/C: 53.5%
[24]
  viability, T/C: 37%
[25]
  viability, T/C: 79.3%
[26]
  viability, T/C: 72.5%
[27]
  viability, T/C: 68%
[28]
  viability, T/C: 63.6%
[29]
  viability, T/C: 49.3%
[30]
  viability, T/C: 30.6%
[31]
  viability, T/C: 69.1%
[32]
  viability, T/C: 73.7%
[33]
  viability, T/C: 56.9%
[34]
  viability, T/C: 46.1%
[35]
  viability, T/C: 35.4%
[36]
  viability, T/C: 23.8%
